Source: ChEMBL document CHEMBL1201862, “PubChem BioAssay data set” (2004)
Activity calls are given as the source filed them.

Tests used:
[1] = molecular target: Platelet-derived growth factor receptor beta (Homo sapiens, UniProt P09619); assay type: functional;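 further: value comes from a kinome panel, with PDGFRB tested as one panel member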
[2] = molecular target: T1, 1-phosphatidylinositol 4,5-bisphosphate phosphodiesterase beta-3 (Homo sapiens, UniProt Q01970); experiment: Fluorescence-based biochemical high throughput dose response assay to identify inhibitors of phospholipase C isozymes (PLC-B3).
T1 sequence (Q01970 whole entry): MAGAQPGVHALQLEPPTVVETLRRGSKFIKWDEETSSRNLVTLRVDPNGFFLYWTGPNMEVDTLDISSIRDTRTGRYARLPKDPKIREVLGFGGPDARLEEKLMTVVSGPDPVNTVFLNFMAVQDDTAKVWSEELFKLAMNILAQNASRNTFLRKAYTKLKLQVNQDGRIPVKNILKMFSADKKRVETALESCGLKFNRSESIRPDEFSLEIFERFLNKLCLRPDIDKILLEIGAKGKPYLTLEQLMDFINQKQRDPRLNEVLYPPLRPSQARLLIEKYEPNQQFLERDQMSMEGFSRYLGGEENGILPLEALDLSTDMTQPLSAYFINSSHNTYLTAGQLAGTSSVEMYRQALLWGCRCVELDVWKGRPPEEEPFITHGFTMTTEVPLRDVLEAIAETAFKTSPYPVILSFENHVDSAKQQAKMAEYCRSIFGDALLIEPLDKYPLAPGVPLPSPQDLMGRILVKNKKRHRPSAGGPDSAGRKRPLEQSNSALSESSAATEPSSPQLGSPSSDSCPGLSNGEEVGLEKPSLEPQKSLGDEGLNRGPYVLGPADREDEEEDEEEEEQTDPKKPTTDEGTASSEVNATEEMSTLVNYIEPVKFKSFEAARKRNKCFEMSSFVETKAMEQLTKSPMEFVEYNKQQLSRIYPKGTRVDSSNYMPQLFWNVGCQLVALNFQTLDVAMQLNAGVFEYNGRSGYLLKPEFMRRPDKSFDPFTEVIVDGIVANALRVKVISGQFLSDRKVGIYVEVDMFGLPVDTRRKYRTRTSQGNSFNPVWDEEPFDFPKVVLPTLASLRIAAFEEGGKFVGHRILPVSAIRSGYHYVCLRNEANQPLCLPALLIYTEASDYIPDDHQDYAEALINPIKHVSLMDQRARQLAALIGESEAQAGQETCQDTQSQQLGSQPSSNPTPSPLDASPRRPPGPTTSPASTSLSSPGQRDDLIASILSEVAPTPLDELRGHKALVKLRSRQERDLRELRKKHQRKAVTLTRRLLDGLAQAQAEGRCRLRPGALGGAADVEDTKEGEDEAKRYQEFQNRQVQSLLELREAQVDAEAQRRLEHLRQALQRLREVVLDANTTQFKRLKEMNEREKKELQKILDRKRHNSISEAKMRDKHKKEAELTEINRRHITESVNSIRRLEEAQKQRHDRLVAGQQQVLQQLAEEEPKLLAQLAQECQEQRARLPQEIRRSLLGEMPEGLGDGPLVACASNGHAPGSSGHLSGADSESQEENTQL

Chain of Platelet-derived growth factor receptor beta (P09619 whole entry): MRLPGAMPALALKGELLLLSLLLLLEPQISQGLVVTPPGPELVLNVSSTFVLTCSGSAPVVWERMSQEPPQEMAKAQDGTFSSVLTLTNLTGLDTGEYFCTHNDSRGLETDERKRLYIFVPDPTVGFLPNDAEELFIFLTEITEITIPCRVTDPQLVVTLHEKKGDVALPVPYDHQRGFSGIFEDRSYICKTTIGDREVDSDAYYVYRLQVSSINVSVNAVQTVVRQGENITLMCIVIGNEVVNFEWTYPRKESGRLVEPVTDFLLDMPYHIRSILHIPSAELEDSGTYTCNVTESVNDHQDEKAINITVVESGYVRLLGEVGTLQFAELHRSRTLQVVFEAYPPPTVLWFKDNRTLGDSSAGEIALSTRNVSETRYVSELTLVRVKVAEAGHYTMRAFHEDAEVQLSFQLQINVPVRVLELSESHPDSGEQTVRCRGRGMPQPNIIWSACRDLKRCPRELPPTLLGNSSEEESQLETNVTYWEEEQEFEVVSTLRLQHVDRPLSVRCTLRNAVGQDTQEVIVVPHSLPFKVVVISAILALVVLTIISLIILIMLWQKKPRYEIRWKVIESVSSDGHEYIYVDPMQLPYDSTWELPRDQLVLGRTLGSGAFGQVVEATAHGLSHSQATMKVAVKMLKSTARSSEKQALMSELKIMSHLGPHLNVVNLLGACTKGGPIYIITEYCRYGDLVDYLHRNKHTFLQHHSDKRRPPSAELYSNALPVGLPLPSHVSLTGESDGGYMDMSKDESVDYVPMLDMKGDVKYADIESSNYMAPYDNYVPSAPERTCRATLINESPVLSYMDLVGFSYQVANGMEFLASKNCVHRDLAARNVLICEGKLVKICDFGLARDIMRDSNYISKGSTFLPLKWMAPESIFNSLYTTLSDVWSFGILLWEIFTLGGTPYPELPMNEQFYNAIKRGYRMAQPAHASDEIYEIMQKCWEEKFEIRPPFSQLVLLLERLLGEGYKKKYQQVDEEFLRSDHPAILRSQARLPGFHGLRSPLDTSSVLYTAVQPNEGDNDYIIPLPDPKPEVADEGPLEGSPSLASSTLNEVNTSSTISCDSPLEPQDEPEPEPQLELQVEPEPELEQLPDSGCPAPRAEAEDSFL

Ki [1] | SMILES | IC50 [2]
> 2 µM (inactive) | Cc1ccc(-c2cc3nc(Br)cnc3[nH]2)cc1 | –
– | O=C1C=C(O)c2c(O)cc(O)c(O)c2C1=O | > 122 µM (inactive)
